Reference: patent publication US6444251B1, “Sweetener compositions containing aspartame and aspartame derivative” (Ajinomoto Co., Inc., priority 1997, dated 2002)
Residues, ends and D or L forms follow the SMILES beside them.

What was measured:
[1] = Quality of sweetness (early taste, later taste, astringency) in comparison to sucrose; details: for early taste / later taste: determined in comparison to sucrose
Protocol: Early taste and late taste are determined in comparison to sucrose. For example, a sweetener, when put in the mouth, can taste sweet as early as sucrose or later than sucrose.

[2] = cited from earlier work; for sweetening potency: relative to sucrose

Row | SMILES | astringency (astringent taste) [1] | quality of sweetness ([1]; compared to sucrose / single ingredients) | early taste [1] | later taste [1] | sweetening potency (in words) ([2]; as shown in French Patent No. 2697844) | sweetening potency [2]
1 | COC(=O)[C@H](Cc1ccccc1)NC(=O)[C@H](CC(=O)O)NCCC(C)(C)C [N-(3,3-dimethylbutyl)-APM, N-[N-(3,3-dimethylbutyl)-L-α-aspartyl]-L-phenylalanine methyl ester] | strong in astringency | badly balanced | extremely weak | extremely strong | markedly improved sweetening potency | 10,000 times that of sucrose
2 | COC(=O)[C@H](Cc1ccccc1)NC(=O)[C@@H](N)CC(=O)O [APM, aspartame] (H-Asp-Phe-OMe) |  |  | weak in early taste | strong in later taste |  | about 200 times that of sucrose
